Measured values reported in patent publication US9056136B2, “Weakly basic 2-nitroimidazoles for the non-invasive detection of tissue hypoxia” (Natural Pharmacia International, Inc., priority 2006, dated 2015).
Where two headings read alike, the source gives them in different places.

Legend:
[1] = tested on: Chinese hamster V79-4 lung fibroblasts; assay: pH-dependent binding to anoxic V79-4 cells, ELISA of cell lysates; type: cell-based; conditions: for binding (ng/g protein ± SE): anoxic V79 cells, 200 uM, 3 hours, 5% CO2+95% nitrogen
Source text: Weakly basic 2-nitroimidazole hypoxia compounds of the invention are more sensitive detectors of hypoxia in cells at high pH than are 2-nitroimidazoles that lack a weakly basic moiety, such as CCI-103F. pH-dependent binding for weakly basic pimonidazole was compared to that for CCI-103F in Chinese hamster V79-4 lung fibroblasts under conditions of short-term anoxia. The pH range used (6.4 to 7.4) encompasses about 90% of extracellular pHs measured in human tumors. Eagle's minimum essential medium (MEM) containing 4.5 g/L glucose, but no carbonate, was warmed to 37° C. in a warm room and adjusted to pH 6.4, 6.8 and 7.4 by the addition of sodium bicarbonate under a stream of 5% CO2+95% nitrogen. Fetal bovine serum (FBS) was added to produce an Eagle's pH adjusted MEM containing 10% FBS. Attached V79-4 cells were harvested with EDTA-trypsin and diluted in 25 mL of the pH adjusted MEM at a concentration of 3×10^5 cells/mL. To this solution was added an amount of a stock solution of pimonidazole HCl or CCI-103F to produce a final concentration of 200 uM. The cell solution was then incubated under an atmosphere of 5% CO2+95% nitrogen with agitation for 3 hours. Cell lysates were analyzed by ELISA and the data normalized to protein content. The experiments for both markers were performed in triplicate.

V79 cells = conditions: cited from earlier work
[2] = humans; cited from earlier work
[3] = tested on: spontaneous canine tumors; assay: immunostaining of hypoxia marker adducts in biopsies of spontaneous canine tumors; type: in vivo, dogs
Source text: Weakly basic 2-nitroimidazole hypoxia compounds of the invention are more efficient at detecting fluctuating hypoxia than are compounds that lack a weakly basic moiety when measured in large spontaneous canine tumors analogous to those occurring in humans. The hydrochloride salt of the weakly basic hypoxia marker, pimonidazole, was given to 12 dogs at a dosage of 0.5 gm/m^2 body surface area. Seven hours later, all 12 dogs received CCI-103F, a marker that lacks a weakly basic moiety. Two to four, widely separated biopsy samples were taken from viable regions in each tumor and immediately placed in cold 10% neutral buffered formalin. The specimens were fixed for 18-24 hours at 4° C. and then transferred into cold 70% ethanol and stored at 4° C. until mounted into paraffin blocks. Sections from formalin-fixed paraffin-embedded biopsy samples were immunostained for pimonidazole and CCI-103F binding using primary rabbit polyclonal antisera to pimonidazole and CCI-103F adducts respectively. Immunostained sections were exhaustively scanned at 400× by means of an Axioskop 50 microscope and Fluar objective and the percent immunostaining for pimonidazole and CCI-103F adducts was measured.

[4] = cited from earlier work
central nervous system = conditions: clinical use, 0.5 g/m2; 750-1000 mg/patient; 50% of the maximally tolerated single dose; cited from earlier work

extent of binding relative to CCI-103F within a single tumor ([3]; regions of one canine tumor, FIGS. 1A-1D)	SMILES	binding (ng/g protein ± SE) ([1]; pH 6.4) [ng/g protein]	binding (ng/g protein ± SE) ([1]; pH 6.8) [ng/g protein]	binding (ng/g protein ± SE) ([1]; pH 7.4) [ng/g protein]	Ci/Ce in V79 cells (V79 cells; pH 6.4)	Ci/Ce in V79 cells (V79 cells; pH 6.8)	Ci/Ce in V79 cells (V79 cells; pH 7.4)	plasma half-life (t1/2) [2] [h]	extent of immunostaining relative to CCI-103F, factor on average ([3]; 12 dogs, pimonidazole HCl 0.5 gm/m^2, CCI-103F seven hours later, paired t test)	intensity of binding compared with CCI-103F ([1]; pH 6.4 to 7.4, anoxic V79-4 cells)	pKa [4]	central nervous system (CNS) effects (central nervous system)
	O=[N+]([O-])c1nccn1CC(O)COC(C(F)(F)F)C(F)(F)F (centres unmarked) [CCI-103F]	90 ± 7	118 ± 17	125 ± 5	~1.0	~1.0	~1.0					
	O=C(Cn1ccnc1[N+](=O)[O-])NCC(F)(F)C(F)(F)F [EF5, 2-(2-nitro-1H-imidazol-1-yl)-N-(2,2,3,3-pentafluoropropyl)-acetamide]							11.7 ± 2.7				
	COCC(O)Cn1ccnc1[N+](=O)[O-] (centres unmarked) [misonidazole]							9.3				
greatly exceeded it in other regions	O=[N+]([O-])c1nccn1CC(O)CN1CCCCC1 (centres unmarked) [pimonidazole, 1-(2-hydroxy-3-piperidinopropyl)-2-nitroimidazole]	144 ± 15	293 ± 19	363 ± 22	1.0	1.6	3.3	5.1 ± 0.8	1.25	greater than that for CCI-103F at all pH levels tested	8.7	extremely low frequency of even the mildest of central nervous system (CNS) effects
